One assay concerns C. albicans (ATCC 66027). Briefly: Microbicidal activity of iodate/iodide silicone tablet formulations in inoculated BHI, pH 4.0. It is filed as cell-based. The conditions noted are these: together with iodate threshold. How it is done: Experiments were performed to optimize formulations used in fabricating the inventive device formulated with silicone elastomer. […] The polymer was allowed to cure with dibutyl tin dilaurate catalyst additions, and then devices were prepared (0.6 cm diameter 0.3 mm thick) using “hole punch” tablets from the disc shaped device to test for microbicidal activity using C. albicans inoculated BHI. […] Tablets obtained from the fabricated device were suspended in the inoculum at 1 tablet/ml. At varying intervals, aliquots of the inoculum, incubated at 35° C. in air, were subcultured to sheep blood agar plates and incubated for an additional 24 hours at 35° C. in air to determine the effect of the varying formulations on the C. albicans inoculums.

Take `I` [iodide]: the “critical media concentration of iodide necessary to effect C. albicans killing” value in the assay on C. albicans (ATCC 66027) was not below 0.5 mM.

Consider `II` [elemental iodine], for which the “elemental iodine concentrations required to affect microbial killing” value in the assay on C. albicans is reported as less than 0.01%.

The values above are taken from US6939569B1, “Medical device having anti-infective and contraceptive properties” (Oxibio, Inc., priority 1998, dated 2005).
